Molecules are shown by their SMILES.

Data on three compounds can be found in ChEMBL document CHEMBL4340569, “Optimization of a small-molecule Lipid II binder” (Bioorg Med Chem Lett, 2019).

The first series deals with Acinetobacter baumannii. The series is described as follows: Antimicrobial activity against Acinetobacter baumannii ATCC 19606 by broth dilution method. The series is classed as functional. The conditions noted are these: ATCC 19606 = CIP 70.34 = JCM 6841. For orientation: Dilution methods test growth across graded concentrations, often in twofold steps.
As usually defined, the MIC is the least concentration at which growth counts as inhibited. Regarding `OCCN(CCO)c1ccc(/C=C/c2cc(-c3cccc(F)c3)cc(-c3cccc(F)c3)[o+]2)cc1`, the minimum inhibitory concentration (MIC) was at least 80 µM.

`Fc1ccc(-c2cc(/C=C/N3CCNCC3)[o+]c(-c3ccc(F)cc3)c2)cc1` displayed a minimum inhibitory concentration (MIC) of at least 80 µM.

System in a further series: not listed separately
The series is described as follows: Toxicity in CD1 mouse assessed as induction of adverse clinical observations at […], iv measured after 5 mins to 14 hrs. The format is organism-based. The conditions noted are these: in vivo.
As to `CN1/C(=C/C=C/c2cc(-c3ccccc3)cc(-c3ccccc3)[o+]2)C(C)(C)c2ccccc21.F[B-](F)(F)F`, the Activity result is “Non-Toxic”.

System in a further series: not listed separately
The series is described as follows: AUClast in CD1 mouse at […], iv measured after 5 mins to 14 hrs by LC/MS/MS analysis. Set-up: time upper 14 hr, dose 2.5 mg/kg, time lower 0.083 hr, route intravenous. The conditions noted are these: in vivo. The format is ADME, organism-based.
One may read the AUC(0-t) as the area under the concentration-time curve up to a stated or last time point. Read a high AUC(0-t) as more exposure. With `CN1/C(=C/C=C/c2cc(-c3ccccc3)cc(-c3ccccc3)[o+]2)C(C)(C)c2ccccc21.F[B-](F)(F)F`, the exposure AUC(0-t) was determined as 26.9 ng·h/mL.

A further series has as its system Enterococcus faecium. The series is described as follows: Antimicrobial activity against Enterococcus faecium EF1509 by broth dilution method.
Conditions: not given
The format is functional.
Take `OCCN(CCO)c1ccc(/C=C/c2cc(-c3cccc(F)c3)cc(-c3cccc(F)c3)[o+]2)cc1`: the minimal inhibitory concentration (MIC) was found to be 3.9 µM.

Consider `Fc1ccc(-c2cc(/C=C/N3CCNCC3)[o+]c(-c3ccc(F)cc3)c2)cc1`, for which the minimal inhibitory concentration (MIC) was 1.9 µM.

For the next series, the system named is Staphylococcus aureus. The series is described as follows: Antimicrobial activity against Staphylococcus aureus ATCC […] by broth dilution method. The series is classed as functional. The conditions noted are these: ATCC 29213.
For the compound `OCCN(CCO)c1ccc(/C=C/c2cc(-c3cccc(F)c3)cc(-c3cccc(F)c3)[o+]2)cc1`, it took 2.1 µM to inhibit growth (MIC).

`Fc1ccc(-c2cc(/C=C/N3CCNCC3)[o+]c(-c3ccc(F)cc3)c2)cc1` displayed an MIC of 3.8 µM.

System in the next series: not listed separately
The series is described as follows: Volume of distribution at steady state in CD1 mouse at […], iv measured after 5 mins to 14 hrs by LC/MS/MS analysis. The format is ADME, organism-based. The note with it: CD1, mouse, in vivo, read-out: Vdss.
Consider `CN1/C(=C/C=C/c2cc(-c3ccccc3)cc(-c3ccccc3)[o+]2)C(C)(C)c2ccccc21.F[B-](F)(F)F`, for which the Vd amounted to 12.2 L/kg.

System in a further series: not listed separately
The series is described as follows: Extrapolated AUC in CD1 mouse at […], iv measured after 5 mins to 14 hrs by LC/MS/MS analysis. The series is classed as ADME, organism-based. The note with it: in vivo.
Turning to `CN1/C(=C/C=C/c2cc(-c3ccccc3)cc(-c3ccccc3)[o+]2)C(C)(C)c2ccccc21.F[B-](F)(F)F`, the “%AUCextra” value is listed as 4.38%.

System in a further series: not listed separately
The series is described as follows: Half life in CD1 mouse at […], iv measured after 5 mins to 14 hrs by LC/MS/MS analysis. The series is classed as ADME, organism-based. The note with it: CD1, mouse, in vivo.
The half-life is the time in which the quantity being followed falls by half. Higher therefore signals slow decline. For `CN1/C(=C/C=C/c2cc(-c3ccccc3)cc(-c3ccccc3)[o+]2)C(C)(C)c2ccccc21.F[B-](F)(F)F`, the half-life was 13.6 min.

Molecular target in another series: not listed separately
The series is described as follows: Binding affinity to bacterial lipid 2 by surface plasmon resonance assay. Also noted: species or system Bacteria.
Conditions: not given
(Surface plasmon resonance follows binding to a sensor surface in real time, without labels.)
What is called Kd is the concentration at which binding is half-saturated. The low end stands for higher affinity, the high end for lower affinity. For the compound `OCCN(CCO)c1ccc(/C=C/c2cc(-c3cccc(F)c3)cc(-c3cccc(F)c3)[o+]2)cc1`, the Kd amounted to 0.31 µM.

For `Fc1ccc(-c2cc(/C=C/N3CCNCC3)[o+]c(-c3ccc(F)cc3)c2)cc1`, binding was put at a Kd of 6.2 µM.

Another series relates to Staphylococcus aureus. The series is described as follows: Antimicrobial activity against methicillin-resistant Staphylococcus aureus HFH-30123 by broth dilution method. The format is functional.
Conditions: not given
`OCCN(CCO)c1ccc(/C=C/c2cc(-c3cccc(F)c3)cc(-c3cccc(F)c3)[o+]2)cc1` had an MIC of 12.5 µM.

Turning to `Fc1ccc(-c2cc(/C=C/N3CCNCC3)[o+]c(-c3ccc(F)cc3)c2)cc1`, 6.25 µM was the least that counted as inhibitory (MIC).

System in a further series: not listed separately
The series is described as follows: Cmax in CD1 mouse at […], iv measured after 5 mins to 14 hrs by LC/MS/MS analysis. The note with it: in vivo. The series is classed as ADME, organism-based. Set-up: dose 2.5 mg/kg, route intravenous.
Broadly, the Cmax is the maximum level reached in the sampled fluid or tissue. The compound `CN1/C(=C/C=C/c2cc(-c3ccccc3)cc(-c3ccccc3)[o+]2)C(C)(C)c2ccccc21.F[B-](F)(F)F` had a Cmax of 101 ng/mL.

In a further series the test system is Enterococcus faecium. The series is described as follows: Antimicrobial activity against vancomycin-resistant Enterococcus faecium EF1509 by broth dilution method. The series is classed as functional.
Conditions: not given
`OCCN(CCO)c1ccc(/C=C/c2cc(-c3cccc(F)c3)cc(-c3cccc(F)c3)[o+]2)cc1`: the minimal inhibitory concentration (MIC) was 3.13 µM.

`Fc1ccc(-c2cc(/C=C/N3CCNCC3)[o+]c(-c3ccc(F)cc3)c2)cc1` yielded an MIC of 3.13 µM.

System in another series: not listed separately
The series is described as follows: AUC (infinity) in CD1 mouse at […], iv measured after 5 mins to 14 hrs by LC/MS/MS analysis. The series is classed as ADME, organism-based. The note with it: in vivo. Set-up: dose 2.5 mg/kg, time infinity, route intravenous.
In general, AUC refers to concentration integrated over time. Low readings indicate low exposure, high ones high exposure. Consider `CN1/C(=C/C=C/c2cc(-c3ccccc3)cc(-c3ccccc3)[o+]2)C(C)(C)c2ccccc21.F[B-](F)(F)F`, for which the exposure (AUC) was 27.9 ng·h/mL.

The next series concerns Staphylococcus aureus. The series is described as follows: Antimicrobial activity against methicillin-resistant Staphylococcus aureus 1094 by broth dilution method. The format is functional.
Conditions: not given
Consider `OCCN(CCO)c1ccc(/C=C/c2cc(-c3cccc(F)c3)cc(-c3cccc(F)c3)[o+]2)cc1`, for which inhibition of growth (MIC) required 12.5 µM.

In the case of `Fc1ccc(-c2cc(/C=C/N3CCNCC3)[o+]c(-c3ccc(F)cc3)c2)cc1`, the MIC was 6.25 µM.

The subject of another series is Klebsiella pneumoniae. The series is described as follows: Antimicrobial activity against carbapenemase KPC producing Klebsiella pneumoniae NR-15410 by broth dilution method. The format is functional.
Conditions: not given
For the compound `OCCN(CCO)c1ccc(/C=C/c2cc(-c3cccc(F)c3)cc(-c3cccc(F)c3)[o+]2)cc1`, the minimum inhibitory concentration (MIC) was at least 80 µM.

`Fc1ccc(-c2cc(/C=C/N3CCNCC3)[o+]c(-c3ccc(F)cc3)c2)cc1` came in with an MIC of at least 80 µM.

System in another series: not listed separately
The series is described as follows: Ratio of EC50 for human HeLa cells to MIC of Enterococcus faecium. The format is toxicity.
Conditions: not given
Turning to `OCCN(CCO)c1ccc(/C=C/c2cc(-c3cccc(F)c3)cc(-c3cccc(F)c3)[o+]2)cc1`, the selectivity ratio came to 49.3.

For `Fc1ccc(-c2cc(/C=C/N3CCNCC3)[o+]c(-c3ccc(F)cc3)c2)cc1`, the selectivity ratio worked out at 62.6.

System in the next series: not listed separately
The series is described as follows: Cytotoxicity against human HeLa cells incubated for 72 hrs. The format is cell-based.
Conditions: not given
By CC50 is commonly meant the concentration giving 50% cytotoxicity. A low value points to greater toxicity to the cells. For the compound `OCCN(CCO)c1ccc(/C=C/c2cc(-c3cccc(F)c3)cc(-c3cccc(F)c3)[o+]2)cc1`, the CC50 at 72 h was at least 80 µg/mL.

On to `Fc1ccc(-c2cc(/C=C/N3CCNCC3)[o+]c(-c3ccc(F)cc3)c2)cc1`, for which the CC50 at 72 h was at least 80 µg/mL.

For the next series, the system named is Pseudomonas aeruginosa. The series is described as follows: Antimicrobial activity against Pseudomonas aeruginosa PAO1 by broth dilution method.
Conditions: not given
The format is functional.
Take `OCCN(CCO)c1ccc(/C=C/c2cc(-c3cccc(F)c3)cc(-c3cccc(F)c3)[o+]2)cc1`: the minimum inhibitory concentration (MIC) was at least 80 µM.

With `Fc1ccc(-c2cc(/C=C/N3CCNCC3)[o+]c(-c3ccc(F)cc3)c2)cc1`, the MIC is at least 80 µM.

For the next series, the system named is Pseudomonas aeruginosa. The series is described as follows: Antimicrobial activity against Pseudomonas aeruginosa ATCC 27853 by broth dilution method. The format is functional.
Conditions: not given
Compound `OCCN(CCO)c1ccc(/C=C/c2cc(-c3cccc(F)c3)cc(-c3cccc(F)c3)[o+]2)cc1` yielded a minimal inhibitory concentration (MIC) of at least 80 µM.

Compound `Fc1ccc(-c2cc(/C=C/N3CCNCC3)[o+]c(-c3ccc(F)cc3)c2)cc1` yielded a minimal inhibitory concentration (MIC) of at least 80 µM.

System in another series: not listed separately
The series is described as follows: Dose normalized AUClast in CD1 mouse at […], iv measured after 5 mins to 14 hrs by LC/MS/MS analysis. The conditions noted are these: in vivo. The series is classed as ADME, organism-based.
Consider `CN1/C(=C/C=C/c2cc(-c3ccccc3)cc(-c3ccccc3)[o+]2)C(C)(C)c2ccccc21.F[B-](F)(F)F`, for which the AUClast/dose came out at 26.9 ng·h/mL.

The subject of a further series is Pseudomonas aeruginosa. The series is described as follows: Antimicrobial activity against Pseudomonas aeruginosa X13273 by broth dilution method. The format is functional.
Conditions: not given
`OCCN(CCO)c1ccc(/C=C/c2cc(-c3cccc(F)c3)cc(-c3cccc(F)c3)[o+]2)cc1` registered an MIC of at least 80 µM.

Compound `Fc1ccc(-c2cc(/C=C/N3CCNCC3)[o+]c(-c3ccc(F)cc3)c2)cc1` displayed an MIC of at least 80 µM.

The test system of another series is Enterococcus faecium. The series is described as follows: Antimicrobial activity against vancomycin-resistant Enterococcus faecium F118 by broth dilution method.
Conditions: not given
The format is functional.
Compound `OCCN(CCO)c1ccc(/C=C/c2cc(-c3cccc(F)c3)cc(-c3cccc(F)c3)[o+]2)cc1` registered an MIC of 12.5 µM.

In the case of `Fc1ccc(-c2cc(/C=C/N3CCNCC3)[o+]c(-c3ccc(F)cc3)c2)cc1`, the lowest concentration to inhibit growth (MIC) was 8.84 µM.

A further series concerns Klebsiella aerogenes. The series is described as follows: Antimicrobial activity against Klebsiella aerogenes ATCC 13048 by broth dilution method.
Conditions: not given
The series is classed as functional.
As for `OCCN(CCO)c1ccc(/C=C/c2cc(-c3cccc(F)c3)cc(-c3cccc(F)c3)[o+]2)cc1`, the MIC is at least 80 µM.

For `Fc1ccc(-c2cc(/C=C/N3CCNCC3)[o+]c(-c3ccc(F)cc3)c2)cc1`, the minimal inhibitory concentration (MIC) was at least 80 µM.

System in the next series: not listed separately
The series is described as follows: Antimicrobial activity against Enterobacter cloacae ATCC 13047 by broth dilution method. The series is classed as functional, Enterobacter cloacae subsp. cloacae.
Conditions: not given
As for `OCCN(CCO)c1ccc(/C=C/c2cc(-c3cccc(F)c3)cc(-c3cccc(F)c3)[o+]2)cc1`, the minimum inhibitory concentration (MIC) was at least 80 µM.

On to `Fc1ccc(-c2cc(/C=C/N3CCNCC3)[o+]c(-c3ccc(F)cc3)c2)cc1`, for which the MIC is at least 80 µM.

The next series concerns Klebsiella pneumoniae. The series is described as follows: Antimicrobial activity against carbapenemase KPC producing Klebsiella pneumoniae NR-15411 by broth dilution method. The format is functional.
Conditions: not given
`OCCN(CCO)c1ccc(/C=C/c2cc(-c3cccc(F)c3)cc(-c3cccc(F)c3)[o+]2)cc1` registered an MIC of at least 80 µM.

In turn, `Fc1ccc(-c2cc(/C=C/N3CCNCC3)[o+]c(-c3ccc(F)cc3)c2)cc1` gave a minimum inhibitory concentration (MIC) of at least 80 µM.

System in the next series: not listed separately
The series is described as follows: MRT in CD1 mouse at […], iv measured after 5 mins to 14 hrs by LC/MS/MS analysis. The note with it: CD1, mouse, in vivo, read-out: MRT. The format is ADME, organism-based.
A word on the MRT: it is a mean duration of stay, worked out from the concentration-time curve. For the compound `CN1/C(=C/C=C/c2cc(-c3ccccc3)cc(-c3ccccc3)[o+]2)C(C)(C)c2ccccc21.F[B-](F)(F)F`, the MRT came to 13.6 min.
